The results in this text go back to patent US11345711B2, “8,9-dihydroimidazo[1,2-a]pyrimido[5,4-e]pyrimidin-5(6H)-ones” (IMPACT THERAPEUTICS (SHANGHAI), INC, priority 2016, dated 2022).

Like-named read-outs stand apart in the source and are kept apart here.

One test has as its system LoVo cells. Put plainly: MTT based cell viability assay on LoVo cells. To be noted: Homo sapiens, LoVo, 72 h, 3 d, read-out: IC50, growth inhibition of LoVo cells. As for the experimental part: Determination of the cell growth inhibiting activity of 6-(2-chlorophenyl)-2-((4-(4-methylpiperazin-1-yl)phenyl)amino)-8,9-dihydroimidazo[1,2-a]pyrimido[5,4-e]pyrimidin-5(6H)-one and analogs on LoVo cells using a MTT based cell viability assay
(§1) The thawed LoVo cells were cultured and passaged to the third generation, and the growth state was good and the confluence was about 90%, which began to be used in the experiment. The LoVo cells were digested with trypsin, centrifuged at 800 rpm for 5 min, the supernatant was discarded, resuspended with fresh culture medium, and counted. 6000 Cells are seeded to each well of a 96-well plate. The cells are incubated at 37° C. in a 5% CO2 cell culture incubator overnight. The tested sample (including the tested compound and the reference compound AZD1775) was diluted continuously to 8 concentrations (the last concentration was negative control of DMSO) with a 1:3 and 1:10 dilution in DMSO respectively: 10 μM, 3.3 μM, 1 μM, 0.33 μM, 0.1 μM, 0.033 μM, 0.01 μM, 0 μM (the final concentration of DMSO was 1%). 5 μL of each concentration was added to 120 μL of culture medium (25 times diluted), and the mixture was shaken well. The overnight cells were taken and the culture medium was removed, 195 μL of fresh culture medium was added to each well, and 5 μL of diluted culture medium containing the corresponding concentration of the tested sample was added respectively, and the culture plate was then placed in the 5% CO2 cell culture incubator at 37° C. for 3 d. After removing the original solution and adding 100 μL of fresh serum-free DMEM culture medium containing MTT (0.5 mg/mL) per well, the culture was continued. The original solution was removed after 4 hrs and 100 μl DMSO was added to each well. The 96-well cell culture plates were shaken away from light for 10 min and readed in a multifunctional reader at 552/630/690 nm to give absorption values (OD values). The data were analyzed using a commercial graphic software (Graph Pad Prism 5.0) and the inhibitory activity of the compound on cell proliferation was plotted in terms of cell survival and compound concentration. The IC50 values were fitted by the S-shaped dose-response curve equation as follows: Y=100/(1+10^(Log C-Log IC50)), where C was the concentration of testing compounds.

The next test deals with NCI-H1299 cells. Put plainly: MTT based cell viability assay on NCI-H1299 cells. Particulars: Homo sapiens, read-out: IC50, growth inhibition of NCI-H1299 cells. The method, then: Determination of the cell growth inhibiting activity of 6-(2-chlorophenyl)-2-((4-(4-methylpiperazin-1-yl)phenyl)amino)-8,9-dihydroimidazo[1,2-a]pyrimido[5,4-e]pyrimidin-5(6H)-one and analogs on NCI-H1299 cells using a MTT based cell viability assay
as §1, with “NCI-H1299” for “LoVo”, “group,” for “medium,”, “1000” for “6000”, “1‰).” for “1%).”, “C−Log” for “C-Log”

A further test addresses Wee1 (h) (Homo sapiens, UniProt P30291). Put plainly: Wee1 kinase (h) detection method, [γ-33P]-ATP filter assay. In kind it is biochemical. As for the experimental part: Determination of the inhibitory effect of 6-(2-chlorophenyl)-2-((4-(4-methylpiperazin-1-yl)phenyl)amino)-8,9-dihydroimidazo[1,2-a]pyrimido[5,4-e]pyrimidin-5(6H)-one and Analogs on the Enzyme Activity of Wee1 Kinase by Using the Wee1 Kinase (h) Detection Method
Then the stock solution of all compounds under test with 50× concentration in 100% DMSO was added to make the final concentration of 10/1/0.1/0.01 μM, and then mixed the mixture well. The reaction is initiated by the addition of the Mg/ATP mix. After incubation for 40 minutes at room temperature, the reaction is stopped by the addition of phosphoric acid to a concentration of 0.5%. […] Each compound sample is duplicated in duplicate. The negative control was lack of all the components of Wee1 enzyme, and the positive was addition of 30% phosphoric acid to terminate the reaction. The Wee1 inhibitor AZD1775 was detected at 10 μM at the same experiment condition.

Wee1 (h), sequence (P30291 whole entry): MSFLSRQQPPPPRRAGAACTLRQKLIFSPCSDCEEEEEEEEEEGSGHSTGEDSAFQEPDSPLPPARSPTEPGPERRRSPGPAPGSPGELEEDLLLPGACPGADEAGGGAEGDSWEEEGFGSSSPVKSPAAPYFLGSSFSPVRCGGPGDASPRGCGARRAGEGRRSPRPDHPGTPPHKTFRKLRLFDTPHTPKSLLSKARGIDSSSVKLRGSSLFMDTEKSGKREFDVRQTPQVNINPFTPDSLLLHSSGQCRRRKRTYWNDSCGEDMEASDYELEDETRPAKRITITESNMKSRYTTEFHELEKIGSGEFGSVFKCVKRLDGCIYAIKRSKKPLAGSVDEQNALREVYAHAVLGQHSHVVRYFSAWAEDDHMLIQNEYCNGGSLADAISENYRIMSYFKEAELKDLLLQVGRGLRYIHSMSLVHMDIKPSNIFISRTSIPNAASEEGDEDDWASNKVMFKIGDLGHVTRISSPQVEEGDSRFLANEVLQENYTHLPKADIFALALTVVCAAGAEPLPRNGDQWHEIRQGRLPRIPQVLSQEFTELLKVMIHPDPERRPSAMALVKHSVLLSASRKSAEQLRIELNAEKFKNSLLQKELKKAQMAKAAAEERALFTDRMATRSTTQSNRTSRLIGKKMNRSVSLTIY

Take `COc1cc(Nc2ncc3c(n2)N2CCN=C2N(c2c(Cl)cccc2Cl)C3=O)ccc1N1CCN(C)CC1` [Example 146, 6-(2,6-Dichlorophenyl)-2-((3-methoxy-4-(4-methylpiperazin-1-yl)phenyl)amino)-8,9-dihydroimidazo[1,2-a]pyrimido[5,4-e]pyrimidin-5(6H)-one]: the IC50 with LoVo cells worked out at 83.3 nM; in the test on NCI-H1299 cells (NCI-H1299 cells), 250 nM. Besides, the “Inh. (%) of Wee1 kinase enzyme activity” value at Wee1 (h) (C 0.01 μm compound) was found to be 9%; on Wee1 (h) (C 0.1 μm compound) it was 85%; on Wee1 (h) (C 1 μm compound), 95%.
For `Cc1cccc(Cl)c1N1C(=O)c2cnc(Nc3cc(Cl)c(N4CCN(C)CC4)c(Cl)c3)nc2N2CCN=C21` [Example 172, 6-(2-Chloro-6-methylphenyl)-2-((3,5-dichloro-4-(4-methylpiperazin-1-yl)phenyl)amino)-8,9-dihydroimidazo[1,2-a]pyrimido[5,4-e]pyrimidin-5(6H)-one], the IC50 worked out at 117 nM in the test with LoVo cells and 362 nM in the test on NCI-H1299 cells (NCI-H1299, NCI-H1299 cells). For the same compound, the figures for the “Inh. (%) of Wee1 kinase enzyme activity” value on Wee1 (h) (C 0.01 μm compound), on Wee1 (h) (C 0.1 μm compound) and at Wee1 (h) (C 1 μm compound) were 12%, 60% and 91%, respectively.
On the same counts, the results for `Cc1cc(Nc2ncc3c(n2)N2CCN=C2N(c2c(F)cccc2Cl)C3=O)cc(C)c1N1CCN(C)CC1` [Example 56, 6-(2-Chloro-6-fluorophenyl)-2-((3,5-dimethyl-4-(4-methylpiperazin-1-yl)phenyl)amino)-8,9-dihydroimidazo[1,2-a]pyrimido[5,4-e]pyrimidin-5(6H)-one] are 47 nM, 318 nM, 14%, 80% and 90%.
On to `Cc1cc(Nc2ncc3c(n2)N2CCN=C2N(c2c(C)cccc2F)C3=O)ccc1N1CCN(C)CC1` [Example 62, 6-(2-Fluoro-6-methylphenyl)-2-((3-methyl-4-(4-methylpiperazin-1-yl)phenyl)amino)-8,9-dihydroimidazo[1,2-a]pyrimido[5,4-e]pyrimidin-5(6H)-one], for which the values for the IC50 in the test on LoVo cells and in the test with NCI-H1299 cells (NCI-H1299 cells) were 194 nM and 925 nM, respectively. On Wee1 (h) (C 1 μm compound), the “Inh. (%) of Wee1 kinase enzyme activity” value stood at 83%.
For `Cc1cccc(F)c1N1C(=O)c2cnc(Nc3ccc(N4CCN(C)CC4)c(Cl)c3)nc2N2CCN=C21` [Example 168, 6-(2-Fluoro-6-methylphenyl)-2-((3-chloro-4-(4-methylpiperazin-1-yl)phenyl)amino)-8,9-dihydroimidazo[1,2-a]pyrimido[5,4-e]pyrimidin-5(6H)-one], in that order: 296 nM, 599 nM and 89%.
Take `CN1CCN(c2ccc(Nc3ncc4c(n3)N3CCN=C3N(c3cc(Cl)ccc3Cl)C4=O)cc2)CC1` [Example 90, 6-(2,5-Dichlorophenyl)-2-((4-(4-methylpiperazin-1-yl)phenyl)amino)-8,9-dihydroimidazo[1,2-a]pyrimido[5,4-e]pyrimidin-5(6H)-one]: the IC50 is 1310 nM in the test on LoVo cells and over 10000 nM with NCI-H1299 cells (NCI-H1299 cells). The “Inh. (%) of Wee1 kinase enzyme activity” value at Wee1 (h) (C 1 μm compound) came out at 29%.
Regarding `CN1CCN(c2ccc(Nc3ncc4c(n3)N3CCN=C3N(c3ccc(F)cc3Cl)C4=O)cc2)CC1` [Example 88, 6-(2-Chloro-4-fluorophenyl)-2-((4-(4-methylpiperazin-1-yl)phenyl)amino)-8,9-dihydroimidazo[1,2-a]pyrimido[5,4-e]pyrimidin-5(6H)-one], the IC50 was over 100000 nM in the test with LoVo cells and over 3000 nM in the test with NCI-H1299 cells (NCI-H1299 cells). Besides, the “Inh. (%) of Wee1 kinase enzyme activity” value on Wee1 (h) (C 1 μm compound) was 75%.
For `CN1CCn2nc(Nc3ncc4c(n3)N3CCN=C3N(c3c(F)cccc3Cl)C4=O)cc2C1` [Example 59, 6-(2-Chloro-6-fluorophenyl)-2-((5-methyl-4,5,6,7-tetrahydropyrazolo[1,5-a]pyrazin-2-yl)amino)-8,9-dihydroimidazo[1,2-a]pyrimido[5,4-e]pyrimidin-5(6H)-one], in that order: over 100000 nM, over 10000 nM and 49%.
Take `CN(C)CCN(C)c1ccc(Nc2ncc3c(n2)N2CCN=C2N(c2c(F)cccc2Cl)C3=O)cc1` [Example 109, 6-(2-Chloro-6-fluorophenyl)-2-((4-((2-(dimethylamino)ethyl)(methyl)amino)phenyl)amino)-8,9-dihydroimidazo[1,2-a]pyrimido[5,4-e]pyrimidin-5(6H)-one]: the IC50 in the test with LoVo cells is 1150 nM; with NCI-H1299 cells (NCI-H1299 cells), 884 nM. Further, the “Inh. (%) of Wee1 kinase enzyme activity” value on Wee1 (h) (C 1 μm compound) came out at 96%.
Consider `COc1cc(Nc2ncc3c(n2)N2CCN=C2N(c2c(Cl)cccc2Cl)C3=O)cc(F)c1N1CCN(C)CC1` [Example 149, 6-(2,6-Dichlorophenyl)-2-((3-fluoro-5-methoxy-4-(4-methylpiperazin-1-yl)phenyl)amino)-8,9-dihydroimidazo[1,2-a]pyrimido[5,4-e]pyrimidin-5(6H)-one], for which the IC50 in the test with LoVo cells was 59.4 nM; in the test with NCI-H1299 cells (NCI-H1299, NCI-H1299 cells), 113 nM. The “Inh. (%) of Wee1 kinase enzyme activity” value at Wee1 (h) (C 0.01 μm compound) came out at 22%; on Wee1 (h) (C 0.1 μm compound), 72%; on Wee1 (h) (C 1 μm compound), 94%.
As to `Cc1cc(Nc2ncc3c(n2)N2CCN=C2N(c2c(Cl)cccc2Cl)C3=O)cc(Cl)c1N1CCN(C)CC1` [Example 151, 6-(2,6-Dichlorophenyl)-2-((3-chloro-5-methyl-4-(4-methylpiperazin-1-yl)phenyl)amino)-8,9-dihydroimidazo[1,2-a]pyrimido[5,4-e]pyrimidin-5(6H)-one], the IC50 in the test on LoVo cells was determined as 30.8 nM; in the test on NCI-H1299 cells (NCI-H1299, NCI-H1299 cells), 175 nM. The “Inh. (%) of Wee1 kinase enzyme activity” value on Wee1 (h) (C 0.01 μm compound) was found to be 42%; at Wee1 (h) (C 0.1 μm compound) it was 98%; on Wee1 (h) (C 1 μm compound) it was 97%.
In the case of `CN(C)CCCN(C)c1ccc(Nc2ncc3c(n2)N2CCN=C2N(c2c(F)cccc2Cl)C3=O)cc1` [Example 111, 6-(2-Chloro-6-fluorophenyl)-2-((4-((3-(dimethylamino)propyl)(methyl)amino)phenyl)amino)-8,9-dihydroimidazo[1,2-a]pyrimido[5,4-e]pyrimidin-5(6H)-one], the half-maximal inhibitory concentration (IC50) worked out at 835 nM in the test on LoVo cells and 913 nM with NCI-H1299 cells (NCI-H1299 cells). Also, the “Inh. (%) of Wee1 kinase enzyme activity” value on Wee1 (h) (C 1 μm compound) is listed as 96%.
